Measurements taken from patent US20250213627A1, “RECOMBINANT MICROORGANISM-BASED METHODS AND COMPOSITIONS FOR TREATMENT OF DISEASE” (Baylor College of Medicine, priority 2021, published 2025).
Ends that are not written are not given here.

Experiments:
rats = test: Side effects of KCa1.1 blockers (urine spots, tremor measurements); type: in vivo, rat; settings: single injection
Description: (§1) FIGS. 12A-12E. Blocking KCa1.1 reduces the severity of an animal model of RA. FIG. 12A. Effects of vehicle (□), paxilline (▪, 20 mg/kg), and iberiotoxin (IbTX, ▪, 0.5 mg/kg) in rats with PIA. Injections were given intraperitoneally (paxilline) or subcutaneously (IbTX), every other day, starting at onset of clinical signs. N=18 rats per group. FIG. 12B. Ex vivo invasiveness of FLS isolated from healthy rats or arthritic rats, treated with vehicle or IbTX. N=5 rats per group. FIG. 12C. Representative images from the joints of arthritic rats, treated with vehicle or IbTX, and stained with Safranin O-fast green (red: cartilage & bone marrow; blue: bone). FIG. 12D. Number of urine spots after rats received a single injection of vehicle, paxilline, or IbTX and were gavaged with 1 ml drinking water. N=6 rats per group. FIG. 12E. Representative tremor measurements in rats 10 min after the injection of vehicle, paxilline, or IbTX. *p<0.05, **p<0.01, ***p<0.001.
(§2) The inventors have tested the efficacy and safety of two KCa1.1 blockers, the small molecule paxilline that blocks KCa1.1 regardless of β subunit and the peptide IbTX that blocks only some αβ combinations of KCa1.1.

KCa1.1 = KCa1.1 (Homo sapiens, UniProt Q12791); settings: cited from earlier work
[1] = test system: viral or bacterial infections in rats; settings: rat, in vivo; cited from earlier work
Kv1.3 = Kv1.3 (Mus musculus, UniProt P16390); settings: literature values; cited from earlier work
[2] = test system: CCR7− TEM cells and CCR7+ naïve/TCM cells; test: [3H]-thymidine incorporation proliferation of T-cell subsets in presence of ShK-186; type: cell-based, human
Description: FIGS. 2A-2C. […] FIGS. 2A-2B. Naïve/TCM (▪) and TEM (▪) cells were separated based on CCR7 expression and activated in the presence of ShK-186, either immediately after isolation (FIG. 2A) or after an overnight pre-activation to induce the upregulation of either KV1.3 or KCa3.1 (FIG. 2B). FIG. 2C. TEM cells were activated with 10 (◯), 30 (▪), or 90 (▴) μg/ml antigen in the presence of ShK-186. In all aspects, T-cell proliferation was assessed via [3H] thymidine incorporation into the DNA of the dividing cells. Each data point represents mean±SD of triplicates.
The activation of CCR7^− TEM cells induces the upregulation of the Kv1.3 K^+ channel (FIG. 1)^8,9. In contrast, CCR7^+ naïve and central memory T (TCM) cells upregulate a different K^+ channel (KCa3.1) upon activation^8,9,35. The inventors therefore designed selective Kv1.3 blockers and assessed the sensitivity of the different T-cell subsets to Kv1.3 block. […] Without wishing to be bound by theory, this “escape” by naïve/TCM effectors may be due to up-regulation of the calcium-activated KCa3.1 channel that regulates membrane potential and Ca^2+ signaling in naïve/TCM effectors in place of Kv1.38. The significance of this finding is that in some aspects Kv1.3 blockers have an advantage over current immunotherapies because naïve and long-lived TCM cells (the main memory pool) would escape inhibition while TEM cells would be targeted.

[3] = test system: rodents, non-human primates, healthy humans, and patients; settings: systemic administration; Phase 1A and 1B; cited from earlier work
active plaque psoriasis = settings: doses as low at 30 μg/patient 3 times a week subcutaneously; cited from earlier work
[4] = test system: rat models of RA and multiple sclerosis; settings: in vivo; cited from earlier work
[5] = test system: Kv1.3 versus Kv1.1 and other ion channels; settings: cited from earlier work
[6] = Immunohistochemistry detection of HA tag in spleen after injection; type: in vivo, rat; settings: subcutaneous injection, spleens collected 3 hours later
Description: FIGS. 10A-10B. LrS235-HA secretes functionally active HA-tagged ShK-235. FIG. 10A. Representative whole-cell Kv1.3 currents measured by patch-clamp in cells stably expressing Kv1.3 before (control, top trace) and after application of ShK-235-HA (bottom trace). FIG. 10B. Healthy Lewis rats received a subcutaneous injection of either ShK-235-HA (left) or of untagged ShK-235 (right). Their spleens were collected 3 hours later and stained to detect the HA tag in brown (arrows). Scale bar: 50 μm.
Two complementary approaches to directly detect ShK-235 in joints and tissues and assess its action on T lymphocyte proliferation are used. L. reuteri LJ01 has been engineered to express HA-tagged ShK-235 (LrS235-HA), because the low immunogenicity of the peptide has made it impossible to raise antibodies against ShK-235. […] ShK-235-HA was injected to healthy rats and their spleens collected. […] HA-tagged ShK-235 is used to detect and localize ShK-235 in the joints, intestines, and secondary lymphoid organs of rats with CIA.

rat CIA model of RA = test: CIA model treated with LrIbTX; type: in vivo; settings: daily treatment for 3 weeks from onset
Excerpt: CIA is induced in male and female Lewis rats as described above and the rats monitored for clinical signs of arthritis. Treatment begins at onset of clinical signs, at which time rats are randomly assigned to the different treatment groups: oral LrIbTX, oral LrIbTX[R34D], injected synthetic IbTX, and injected vehicle. Treatment continues daily for 3 weeks. Rats are scored daily for CIA severity with a score of 2 given for each lightly swollen ankle or wrist, 5 for each severely swollen ankle and wrist, and 1 for each red and swollen small joint for a total of 15 per paw. At the end of the 3 weeks of treatment and scoring, rats are euthanized for collection of blood and hind limbs. Blood is used to prepare serum to detect circulating levels of IbTX. For each rat, the left hind limb is used for micro-CT to detect bone damage followed by sectioning for histology to detect cartilage damage (safranin O/Fast Green stain) and synovium inflammation (hematoxylin and eosin stain). The right hind limb is used for the isolation of FLS to assess their proliferation and invasiveness ex vivo, using the methods described above, without further treatment.

CIA = settings: injected; cited from earlier work
RA-FLS = RA-FLS proliferation and invasion assays; type: cell-based, human; settings: supernatants or synthetic peptide
Description: For proliferation assays, RA-FLS are plated into 96 well plates and incubated for 48 hrs in the presence of media supplemented with either LrIbTX or LrIbTX[R34D] supernatants, known concentrations of synthetic IbTX, or the vehicle for IbTX. [3H] thymidine is added during the last 16-18 hrs of culture and the amount of [3H] thymidine incorporated into the DNA collected with a scintillation counter as a measure of cell division.
For invasion assays, RA-FLS are seeded in the upper compartment of a Matrigel-coated transwell and induced to cross into the lower compartment by the addition of FBS. The upper compartment is supplemented with either LrIbTX or LrIbTX[R34D] supernatants, synthetic IbTX, or the vehicle. The number of cells crossing into the lower compartment are counted as a measure of invasiveness.

rat model of RA (PIA) = test: Pristane-induced arthritis (PIA) model treated with KCa1.1 blockers; type: in vivo; settings: paxilline 20 mg/kg i.p., IbTX 0.5 mg/kg s.c., every other day from onset
Description: as §1, §2

[7] = Detection of functional IbTX in the circulation of rats by patch-clamp; type: in vivo, rat; settings: enteric-coated capsule
Description: CIA is induced in both male and female Lewis rats by their immunization twice at a week interval with porcine collagen II in emulsion with incomplete Freund's adjuvant. Rats are monitored for clinical signs of arthritis and receive an oral bolus of [1×10^7-1×10^9 CFU] LrIbTX or LrIbTX[R34D], or an enteric-coated capsule containing either 0.1 mg/kg body weight synthetic IbTX, IbTX[R34D] or glycerin on the day after the onset of clinical signs. Age- and sex-matched healthy rats are used for comparison. Blood is collected via the saphenous vein or via terminal cardiac puncture 1 hr, 6 hrs, and 24 hrs after gavage. Whole-cell patch-clamp is used to detect and quantify levels of functional IbTX in the serum of the rats.

[8] = cells activated overnight, rested and re-stimulated

Sequence of Kv1.3 (P16390 whole entry): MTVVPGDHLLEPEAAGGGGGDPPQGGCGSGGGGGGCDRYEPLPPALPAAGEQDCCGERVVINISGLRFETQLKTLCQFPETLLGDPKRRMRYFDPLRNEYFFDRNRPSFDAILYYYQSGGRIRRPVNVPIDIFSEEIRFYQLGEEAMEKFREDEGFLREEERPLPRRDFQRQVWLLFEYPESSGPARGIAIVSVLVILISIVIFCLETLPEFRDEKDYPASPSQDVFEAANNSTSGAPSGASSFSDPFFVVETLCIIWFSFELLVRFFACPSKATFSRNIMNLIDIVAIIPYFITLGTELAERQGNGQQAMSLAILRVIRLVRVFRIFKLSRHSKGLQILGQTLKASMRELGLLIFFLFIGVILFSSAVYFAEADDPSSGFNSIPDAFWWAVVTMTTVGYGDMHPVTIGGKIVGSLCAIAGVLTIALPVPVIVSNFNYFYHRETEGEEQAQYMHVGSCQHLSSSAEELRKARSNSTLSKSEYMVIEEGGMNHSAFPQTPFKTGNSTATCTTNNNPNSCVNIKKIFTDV
Sequence of KCa1.1 (Q12791 whole entry, species assumed): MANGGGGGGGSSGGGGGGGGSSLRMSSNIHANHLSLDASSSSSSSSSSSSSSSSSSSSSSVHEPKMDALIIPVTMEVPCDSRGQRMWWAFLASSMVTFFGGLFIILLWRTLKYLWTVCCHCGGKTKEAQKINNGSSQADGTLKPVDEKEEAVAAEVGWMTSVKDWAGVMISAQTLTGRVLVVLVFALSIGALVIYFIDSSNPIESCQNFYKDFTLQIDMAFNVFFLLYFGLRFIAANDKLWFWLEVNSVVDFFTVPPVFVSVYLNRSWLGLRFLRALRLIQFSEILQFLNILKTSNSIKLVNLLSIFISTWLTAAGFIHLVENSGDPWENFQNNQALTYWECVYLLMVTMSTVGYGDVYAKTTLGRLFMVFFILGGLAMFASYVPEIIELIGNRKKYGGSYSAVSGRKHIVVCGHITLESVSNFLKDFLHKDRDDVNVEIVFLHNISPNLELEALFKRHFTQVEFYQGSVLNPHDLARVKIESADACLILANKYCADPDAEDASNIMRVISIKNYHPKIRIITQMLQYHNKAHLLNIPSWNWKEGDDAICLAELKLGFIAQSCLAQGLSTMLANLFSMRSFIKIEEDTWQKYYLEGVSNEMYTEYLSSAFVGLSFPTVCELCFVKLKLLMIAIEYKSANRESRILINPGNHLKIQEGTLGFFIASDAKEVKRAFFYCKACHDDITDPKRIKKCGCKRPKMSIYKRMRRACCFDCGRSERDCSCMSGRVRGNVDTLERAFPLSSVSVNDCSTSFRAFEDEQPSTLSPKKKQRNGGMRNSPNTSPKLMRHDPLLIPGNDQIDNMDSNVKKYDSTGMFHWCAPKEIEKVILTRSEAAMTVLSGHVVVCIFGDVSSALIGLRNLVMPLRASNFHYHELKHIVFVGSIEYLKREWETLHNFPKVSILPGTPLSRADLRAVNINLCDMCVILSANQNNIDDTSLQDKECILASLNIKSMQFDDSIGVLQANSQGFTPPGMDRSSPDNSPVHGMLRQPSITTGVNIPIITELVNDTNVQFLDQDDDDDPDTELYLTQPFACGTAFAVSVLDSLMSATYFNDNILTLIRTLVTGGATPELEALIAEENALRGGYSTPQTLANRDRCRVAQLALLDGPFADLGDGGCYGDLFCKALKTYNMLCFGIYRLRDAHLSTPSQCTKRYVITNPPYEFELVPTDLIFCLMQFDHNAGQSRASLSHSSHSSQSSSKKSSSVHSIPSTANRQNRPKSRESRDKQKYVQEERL

CC(C)(O)[C@H]1O[C@H]2CC[C@@]3(C)[C@@](O)(CC[C@H]4Cc5c([nH]c6ccccc56)[C@@]43C)C2=CC1=O [paxilline]
Side effects (incontinence, tremors) (rats): induces incontinence and tremors

IbTX[R34D] (QFTDVDCSVSKECWSVCKDLFGVDRGKCMGKKCDCYQ; ends and bridges not checked; cysteine pairing not given here; UniProt P24663 1-37, looked up, variant R34D)
Block of KCa1.1 channels (KCa1.1; mutant IbTX): does not block KCa1.1 channels

ShK derivative, pTyr-AEEA-RSCIDTIPKSRCTAFQCKHSMKYRLSFCRKTCGTC, amidated C-terminus (SEQ ID NO:11) [ShK-186]
Effect on clearance of infections [1]: did not prevent the clearance | IC50 (Kv1.3): 0.07 nM | Sensitivity of TEM cell proliferation to the Kv1.3 blocker [2, 8]: exquisitely sensitive | Sensitivity of naïve/TCM cell proliferation to the Kv1.3 blocker [2, 8]: resistant | Fold more effective in suppressing [3H]-thymidine incorporation by TEM cells compared with naïve/TCM cells ([2]; cells from patients with type 1 diabetes or RA, activated immediately after isolation): 10 fold | Safety profile [3]: excellent safety profile | Efficacy (active plaque psoriasis): showed efficacy | Tolerability (active plaque psoriasis): well tolerated | Efficacy [4]: demonstrated efficacy | Selectivity for Kv1.3 over all other ion channels [5]: ≥ 700 fold | Selectivity for Kv1.3 versus the closely-related Kv1.1 channel [5]: 100 fold | Selectivity for Kv1.3 over other channels ([5]; comparator value): 100 fold

ShK-235-HA: HA-tagged ShK-235 (RSCIDTIPKSRCTAFKCKHSIKYRLSFCRKTCGTCA; ends and bridges not checked; also: HA tag (position not given here))
Detection in spleen sections [6]: detect HA-ShK-235 in spleen sections

iberiotoxin (QFTDVDCSVSKECWSVCKDLFGVDRGKCMGKKCRCYQ; not fully specified (residue 1, bridges); cysteine pairing not given here; UniProt P24663 1-37, looked up) [IbTX]
CIA disease severity (rat CIA model of RA): milder disease | Efficacy in CIA (CIA): showed efficacy | Side effects (incontinence, tremors) (rats): No such side effects | Inhibition of RA-FLS proliferation and invasiveness (RA-FLS): inhibit | Reduction of disease severity (rat model of RA (PIA)): effective in reducing disease severity | Detection of IbTX in the circulation [7]: transiently detected | IC50 (KCa1.1): 2 nM

sea anemone Stichodactyla helianthus peptide RSCIDTIPKSRCTAFQCKHSMKYRLSFCRKTCGTC (SEQ ID NO:10) [ShK]
IC50 (Kv1.3): 0.01 nM
